# Results published in patent US9181235B2, “Substituted pyridines for modulating the WNT signaling pathway” (NOVARTIS AG, priority 2010, dated 2015).
# Test system: Wnt signaling
# Assay: Wnt-Luc reporter assay for pathway inhibition of Wnt signaling
# Format: cell-based, mouse (TM3 Wnt-Luc) or human (293 Wnt-Luc); not stated which
# Conditions: Table 2; Wnt-Luc reporter cells co-cultured with L-cell Wnt3a cells, 24 hours
# Description: This example provides a method that is useful for evaluating test compounds for inhibition of Wnt signaling.
# Mouse leydig cell TM3 cells (obtained from American Type Culture Collection, ATCC, Manassas, Va.) are cultured in 1:1 mixture of Ham's F12 medium and Dulbecco's modified Eagle's medium (Gibco/Invitrogen, Carlsbad, Calif.) supplemented with 2.5% FBS (Gibco/Invitrogen, Carlsbad, Calif.) and 5% horse serum (Gibco/Invitrogen, Carlsbad, Calif.), 50 unit/mL penicillin and 50 μg/mL of streptomycin (Gibco/Invitrogen, Carlsbad, Calif.) at 37° C. with 5% CO2 in air atmosphere. TM3 cells in a 10 cm dish are co-transfected with 8 μg of STF-reporter plasmid containing a luciferase gene driven by Wnt-responsive elements and 2 μg of pcDNA3.1-Neo (Gibco/Invitrogen, Carlsbad, Calif.) with 30 μL of FuGENE6 (Roche Diagnostics, Indianapolis, Ind.) following the manufacturer's protocol. Stable cell lines (TM3 Wnt-Luc) were selected with 400 μg/mL of G418 (Gibco/Invitrogen, Carlsbad, Calif.). The TM3 Wnt-Luc cells and L-cell Wnt3a cells (obtained from American Type Culture Collection, ATCC, Manassas, Va.; cultured in Dulbecco's modified Eagle's medium (Gibco/Invitrogen, Carlsbad, Calif.) supplemented with 10% FBS (Gibco/Invitrogen, Carlsbad, Calif.) and 50 unit/mL penicillin and 50 μg/mL of streptomycin (Gibco/Invitrogen, Carlsbad, Calif.) at 37° C. with 5% CO2 in air atmosphere) are trypsinized and co-cultured into a 384-well plate with DMEM medium supplemented with 2% FBS, and treated with different concentrations of a compound of the invention. After 24 hours, the firefly luciferase activities are assayed with the Bright-Glo™ Luciferase Assay System (Promega, Madison, Wis.). The IC50 is measured when the effect of the compound reduces the luminescence signal by 50%.
# This example provides another method that is useful for evaluating test compounds for inhibition of Wnt signaling.
# Human embryonic kidney 293 cells (obtained from American Type Culture Collection, ATCC, Manassas, Va.) are cultured in DMEM medium (Gibco/Invitrogen, Carlsbad, Calif.) supplemented with 10% FBS (Gibco/Invitrogen, Carlsbad, Calif.), 50 unit/mL penicillin and 50 μg/mL of streptomycin (Gibco/Invitrogen, Carlsbad, Calif.) at 37° C. with 5% CO2 in air atmosphere. 293 cells in a 10 cm dish are co-transfected with 8 μg of STF-reporter plasmid containing a luciferase gene driven by Wnt-responsive elements and 2 μg of pcDNA3.1-Neo (Gibco/Invitrogen, Carlsbad, Calif.) with 30 μL of FuGENE6 (Roche Diagnostics, Indianapolis, Ind.) following the manufacturer's protocol. Stable cell lines (293 Wnt-Luc) were selected with 400 μg/mL of G418 (Gibco/Invitrogen, Carlsbad, Calif.). The 293 Wnt-Luc cells and L-cell Wnt3a cells (obtained from American Type Culture Collection, ATCC, Manassas, Va.) are trypsinized and co-cultured into a 384-well plate with DMEM medium supplemented with 2% FBS, and treated with different concentrations of a compound of the invention. After 24 hours, the firefly luciferase activities are assayed with the Bright-Glo™ Luciferase Assay System (Promega, Madison, Wis.). The IC50 is measured when the effect of the compound reduces the luminescence signal by 50%.
row,IC50,Compound
1,> 2000 nM,Cc1cc(C(=O)NCc2cnc(-c3ccnc(C(F)(F)F)c3)c(C)c2)ncc1-c1ncccc1C [compound 96]
2,> 20000 nM,CC(=O)N1CCN(c2ccc(C(=O)NCc3ccc(-c4ccnnc4)cc3)cc2)CC1 [compound 100]

# Same assay, conditions: Wnt-Luc reporter cells co-cultured with L-cell Wnt3a cells, 24 hours, luciferase signal reduced by 50%
row,Compound,IC50
1,"Cc1cc(CNC(=O)c2ccn(-c3cccc(F)c3)c(=O)c2)cnc1-c1ccnc(C(F)(F)F)c1 [compound 90, 1-(3-fluorophenyl)-N-({5-methyl-6-[2-(trifluoromethyl)pyridin-4-yl]pyridin-3-yl}methyl)-2-oxo-1,2-dihydropyridine-4-carboxamide]",6.6 nM
2,"Cc1cccnc1-c1ccc(C(=O)NCc2cnc(-c3ccnc(C(F)(F)F)c3)c(C)c2)nc1 [compound 74, N-({5-methyl-6-[2-(trifluoromethyl)pyridin-4-yl]pyridin-3-yl}methyl)-5-(3-methylpyridin-2-yl)pyridine-2-carboxamide]",32 nM
3,"CC(=O)N1CCN(c2ccc(C(=O)NCc3ccc(-c4ccnc(C)c4)c(F)c3)cn2)CC1 [compound 20, 6-(4-Acetylpiperazin-1-yl)-N-(3-fluoro-4-(2-methylpyridin-4-yl)benzyl)nicotinamide]",6.4 nM
4,"O=C(NCc1ccc(N2CC[S+]([O-])CC2)nc1)c1ccc(-c2cccc(F)c2)cc1 [compound 8, 3′-fluoro-N-((6-(1-oxide-thiomorpholino)pyridin-3-yl)methyl)biphenyl-4-carboxamide]",0.7 nM
5,"Cc1cc(CNC(=O)c2ccc(-c3cnccn3)nc2)cnc1-c1ccnc(C(F)(F)F)c1 [compound 54, N-({5-methyl-6-[2-(trifluoromethyl)pyridin-4-yl]pyridin-3-yl}methyl)-6-(pyrazin-2-yl)pyridine-3-carboxamide]",1.2 nM
6,"Cc1cc(-c2cnccn2)cnc1C(=O)NCc1ccc(-c2ccnc(C(F)(F)F)c2)nc1 [compound 87, 3-methyl-5-(pyrazin-2-yl)-N-({6-[2-(trifluoromethyl)pyridin-4-yl]pyridin-3-yl}methyl)pyridine-2-carboxamide]",16 nM
7,"O=C(NCc1ccc(N2CCS(=O)(=O)CC2)nc1)c1ccc(-c2cccc(F)c2)cc1 [compound 3, N-((6-(1,1-dioxidothiomorpholino)pyridin-3-yl)methyl)-3′-fluoro-[1,1′-biphenyl]-4-carboxamide]",2.3 nM
8,"Cc1cc(CNC(=O)c2ccc(-c3cccnn3)nc2)cnc1-c1ccnc(F)c1 [compound 52, N-{[6-(2-fluoropyridin-4-yl)-5-methylpyridin-3-yl]methyl}-6-(pyridazin-3-yl)pyridine-3-carboxamide]",1.6 nM
9,"Cc1cc(-c2ncc(CNC(=O)c3ccc(-c4ncccc4C)cn3)cc2F)ccn1 [compound 75, N-{[5-fluoro-6-(2-methylpyridin-4-yl)pyridin-3-yl]methyl}-5-(3-methylpyridin-2-yl)pyridine-2-carboxamide]",6.9 nM
10,"Cc1cc(-n2ccc(CNC(=O)c3ccc(-c4cccc(F)c4)cn3)cc2=O)ccn1 [compound 91, 5-(3-fluorophenyl)-N-{[1-(2-methylpyridin-4-yl)-2-oxo-1,2-dihydropyridin-4-yl]methyl}pyridine-2-carboxamide]",3.8 nM
11,"Cc1cc(CNC(=O)c2ccc(-c3cccnn3)nc2)cnc1-c1ccnc(C(F)(F)F)c1 [compound 53, N-({5-methyl-6-[2-(trifluoromethyl)pyridin-4-yl]pyridin-3-yl}methyl)-6-(pyridazin-3-yl)pyridine-3-carboxamide]",10.2 nM
12,"O=C(NCc1ccc(-c2ccnc(F)c2)nc1)c1ccc(-c2cnccn2)cc1 [compound 24, N-((2′-fluoro-[2,4′-bipyridin]-5-yl)methyl)-4-(pyrazin-2-yl)benzamide]",0.8 nM
13,"Cc1cc(-c2cnc(CNC(=O)c3ccc(-c4cnccn4)cn3)c(C)c2)ccn1 [compound 81, N-((2′,5-dimethyl-3,4′-bipyridin-6-yl)methyl)-5-(pyrazin-2-yl)picolinamide]",20 nM
14,"Cc1cc(C(=O)NCc2cnc(-c3ccnc(C(F)(F)F)c3)c(C)c2)ncc1-c1cccc(F)c1 [compound 83, 5-(3-fluorophenyl)-4-methyl-N-({5-methyl-6-[2-(trifluoromethyl)pyridin-4-yl]pyridin-3-yl}methyl)pyridine-2-carboxamide]",812 nM
15,"Cc1cc(-c2ccc(CNC(=O)c3ccc(-c4ccccc4)c(C)c3)cn2)ccn1 [compound 50, 3-methyl-N-{[6-(2-methylpyridin-4-yl)pyridin-3-yl]methyl}-4-phenylbenzamide]",3 nM
16,"Cc1ncccc1-c1ccc(C(=O)NCc2ccc(-c3ccnc(C(F)(F)F)c3)nc2)nc1 [compound 67, 5-(2-methylpyridin-3-yl)-N-({6-[2-(trifluoromethyl)pyridin-4-yl]pyridin-3-yl}methyl)pyridine-2-carboxamide]",6 nM

# Second part, the compound after the results:
row,IC50,Compound
1,0.2 nM,"Cc1cc(-c2ccc(CNC(=O)c3ccc(-c4cnccn4)cc3)cn2)ccn1 [compound 18, N-((2′-methyl-[2,4′-bipyridin]-5-yl)methyl)-4-(pyrazin-2-yl)benzamide]"
2,0.41 nM,"Cc1cc(CNC(=O)c2ccc(-c3cnccn3)cc2)cnc1-c1ccnc(C(F)(F)F)c1 [compound 58, N-((3-Methyl-2′-(trifluoromethyl)-2,4′-bipyridin-5-yl)methyl)-4-(pyrazin-2-yl)benzamide]"
3,0.1 nM,"Cc1cc(-c2ccc(CNC(=O)c3ccc(-c4cccc(F)c4)cc3)cn2)ccn1 [compound 23, 4-(3-fluorophenyl)-N-{[6-(2-methylpyridin-4-yl)pyridin-3-yl]methyl}benzamide]"
4,0.26 nM,"Cc1cc(CNC(=O)c2ccc(-c3cnccn3)cn2)cnc1-c1ccnc(F)c1 [compound 39, N-{[6-(2-fluoropyridin-4-yl)-5-methylpyridin-3-yl]methyl}-5-(pyrazin-2-yl)pyridine-2-carboxamide]"
5,0.26 nM,"Cc1cc(CNC(=O)c2ccc(-c3cccc(F)c3)nc2)cnc1-c1ccnc(C(F)(F)F)c1 [compound 47, 6-(3-fluorophenyl)-N-({5-methyl-6-[2-(trifluoromethyl)pyridin-4-yl]pyridin-3-yl}methyl)pyridine-3-carboxamide]"
6,0.05 nM,"Cc1cc(-c2ccc(CNC(=O)c3ccc(-c4cncnc4)cc3)cc2)ccn1 [compound 16, N-{[4-(2-methylpyridin-4-yl)phenyl]methyl}-4-(pyrimidin-5-yl)benzamide]"
7,0.22 nM,"O=C(NCc1cnc(-c2ccnc(C(F)(F)F)c2)c(F)c1)c1ccc(-c2cnccn2)cn1 [compound 85, N-({5-fluoro-6-[2-(trifluoromethyl)pyridin-4-yl]pyridin-3-yl}methyl)-5-(pyrazin-2-yl)pyridine-2-carboxamide]"
8,0.5 nM,"Cc1cn(-c2ccc(CNC(=O)c3ccc(-c4ccccc4)cc3)cc2)cn1 [compound 92, N-(4-(4-methyl-1H-imidazol-1-yl)benzyl)biphenyl-4-carboxamide]"
9,0.3 nM,"Cc1cc(-c2ncc(CNC(=O)c3ccc(-c4cccc(F)c4)cn3)cc2C)ccn1 [compound 36, 5-(3-fluorophenyl)-N-{[5-methyl-6-(2-methylpyridin-4-yl)pyridin-3-yl]methyl}pyridine-2-carboxamide]"
10,0.62 nM,"Cc1cc(-c2ncc(CNC(=O)c3ccc(-c4cnccn4)nc3)cc2F)ccn1 [compound 61, N-{[5-fluoro-6-(2-methylpyridin-4-yl)pyridin-3-yl]methyl}-6-(pyrazin-2-yl)pyridine-3-carboxamide]"
